Assay results reported in patent publication US8883798B2, “Pyrimidine compounds inhibiting the formation of nitric oxide and prostaglandin E2, method of production thereof and use thereof” (Ustav Organicke Chemie a Biochemie Akademie Ved CR, V.V.I., priority 2011, dated 2014).

Assays:
[1] = system: production of nitric oxide (NO); test: Production of nitric oxide (NO) in cultures of mouse peritoneal cells stimulated with IFN-γ plus LPS (Griess reagent); format: cell-based, mice; settings: Table 3B; substance 50 μmol·l^−1; IFN-g plus LPS; 24 h
Description: (§1) Under in vitro conditions, the effect of the pyrimidine compounds according to this invention was tested in terms of the production of nitric oxide (NO) and in terms of the production of prostaglandin E2 (PGE2) in cultures of the peritoneal cells of mice.
NO is a product of the metabolism of L-arginine, quickly changes to […], which are then measured using the Griess reagent system. Under normal conditions, the production of NO is practically zero. It only occurs after some stimulation. In these experiments, interferon-gamma (IFN-γ) and bacterial lipopolysacharide (LPS) were used as stimulators. The values of NO induced in this way fluctuated in the individual experiments in a range from 52 to 89 μmol·l^−1; for the purposes of comparison between the experiments they were considered as 100%. The production of NO after the application of the substances was expressed in percentage with respect to the control values. (The lower the value, the higher the inhibition effect of the substances on NO production.) IC50 are the concentrations of the substances reducing the production of NO by 50% with respect to the controls.
(§2) Experiments were performed on mice peritoneal cells C57BL/6 (Charles River, Germany—AnLabu).
(§3) NO production was induced using IFN-g (5000 pg/mL) plus LPS (100 pg/mL); evaluated (Griess reagent) after 24 h of the cell cultivation (2×10^6/mL). PGE2 was induced using LPS (10 ng/mL); evaluated (ELISA) following 6 h cultivation of cells (3×10^6/mL). Cell longevity was evaluated using WST-1 (tetrazolium salt), following 24 h cultivation of cells (1×10^6/mL). The values mentioned in the table represent the effects of the substances tested in a concentration of 50 μmol·l^−1.

[2] = system: production of prostaglandin E2 (PGE2); test: Production of prostaglandin E2 (PGE2) in cultures of mouse peritoneal cells stimulated with LPS (ELISA kit); format: cell-based, mice; settings: Table 3B, 6 h
Description: as §1
The influence on the production of prostaglandin E2 (PGE2) in vitro caused by the activity of the pyrimidine compounds according to the submitted invention was determined in cultures of the peritoneal cells of mice using a commercial kit (R&DSystems). The concentrations of PGE2 after lipopolysacharide (LPS) stimulation reached in the individual experiments values in a range of 22 to 91 ng·ml^−1 and for the purposes of comparison between the experiments were considered as 100%. The influence of the substances on the production of PGE2 was evaluated in percentage with respect to the control values.
as §2, §3

peritoneal cells of mice = test: Cell viability of mouse peritoneal cells (WST-1 kit); format: cell-based; settings: Table 3B, substance 50 μmol·l^−1, 24 h
Description: Cell viability was determined in the standard way using a WST-1 kit (Roche). The values of the viability of the control cells were for the purposes of comparison between experiments considered as 100%. The influence of the substances on the longevity of the cells was evaluated in percentage with respect to the control values.
as §2, §3

Row | Compound | Production of nitric oxide in % of the controls [1] | Production of prostaglandins IC50 (μmol · 1^−1) average value and range of values [2] | Cell viabilities in % of the controls (peritoneal cells of mice)
1 | CCCCc1c(-c2ccc(OC)cc2)nc(N)nc1-c1cccs1 [Substance 88] | 69.14 ± 9.10; n = 2 % of the controls | 14.19 ± 4.00; n = 6 μmol · 1^−1 | 125.52 ± 5.28; n = 8 % of the controls
2 | CCCCc1c(-c2ccccn2)nc(N)nc1-c1cccs1 [Substance 89] | 19.62 ± 4.08; n = 6 % of the controls | 92.30 ± 9.20; n = 4 μmol · 1^−1 | 104.15 ± 10.36; n = 8 % of the controls
3 | CCCCc1c(-c2cccnc2)nc(N)nc1-c1cccs1 [Substance 90] | 50.11 ± 3.95; n = 4 % of the controls | 31.93 ± 15.87; n = 4 μmol · 1^−1 | 69.80 ± 6.79; n = 4 % of the controls
4 | CCCCc1c(-c2ccncc2)nc(N)nc1-c1cccs1 [Substance 91] | 63.95 ± 2.00; n = 4 % of the controls | 29.01 ± 5.46; n = 4 μmol · 1^−1 | 81.38 ± 6.86; n = 4 % of the controls
5 | CCCCc1c(-c2cccs2)nc(N)nc1-c1cccs1 [Substance 92] | 46.09 ± 7.92; n = 6 % of the controls | 29.52 ± 11.77; n = 4 μmol · 1^−1 | 102.36 ± 6.45; n = 8 % of the controls
6 | CCCCc1c(-c2ccccc2)nc(N)nc1-c1ccco1 [Substance 94] | 39.73 ± 5.57; n = 6 % of the controls | 38.84 ± 15.99; n = 4 μmol · 1^−1 | 104.21 ± 14.38; n = 8 % of the controls
7 | CCCCc1c(-c2ccc(F)cc2)nc(N)nc1-c1ccco1 [Substance 95] | 61.96 ± 6.41; n = 6 % of the controls | 70.79 ± 11.61; n = 4 μmol · 1^−1 | 119.71 ± 4.71; n = 8 % of the controls
8 | CCCCc1c(-c2ccc(OC)cc2)nc(N)nc1-c1ccco1 [Substance 96] | 50.99 ± 2.60; n = 4 % of the controls | 43.05 ± 21.74; n = 4 μmol · 1^−1 | 113.53 ± 4.93; n = 8 % of the controls
9 | CCCCc1c(-c2cccnc2)nc(N)nc1-c1ccco1 [Substance 97] | 37.05 ± 6.68; n = 6 % of the controls | 48.18 ± 19.94; n = 4 μmol · 1^−1 | 45.54 ± 4.96; n = 8 % of the controls
10 | CCCCc1c(-c2ccncc2)nc(N)nc1-c1ccco1 [Substance 98] | 54.42 ± 2.64; n = 6 % of the controls | 62.49 ± 11.98; n = 4 μmol · 1^−1 | 69.84 ± 3.62; n = 8 % of the controls
11 | CCCCc1c(-c2ccco2)nc(N)nc1-c1cccs1 [Substance 99] | 31.27 ± 2.12; n = 4 % of the controls | 13.25 ± 6.33; n = 4 μmol · 1^−1 | 55.22 ± 5.10; n = 4 % of the controls
12 | CCCCc1c(-c2ccco2)nc(N)nc1-c1ccco1 [Substance 100] | 33.70 ± 2.71; n = 6 % of the controls | 22.46 ± 7.25; n = 2 μmol · 1^−1 | 69.04 ± 4.47; n = 8 % of the controls
13 | CCCCc1c(Cl)nc(N)nc1-c1ccco1 [Substance 101] | 29.35 ± 6.38; n = 6 % of the controls | 6.60 ± 5.34; n = 4 μmol · 1^−1 | 68.95 ± 3.02; n = 8 % of the controls
14 | CCCCc1c(-c2ccccc2)nc(N)nc1-c1ccoc1 [Substance 102] | 68.34 ± 4.63; n = 6 % of the controls | 54.8 ± 10.70; n = 6 μmol · 1^−1 | 110.35 ± 5.69; n = 8 % of the controls
15 | CCCCc1c(-c2ccc(F)cc2)nc(N)nc1-c1ccoc1 [Substance 103] | 66.44 ± 3.19; n = 6 % of the controls | 66.80 ± 8.64; n = 4 μmol · 1^−1 | 147.62 ± 3.25; n = 8 % of the controls
16 | CCCCc1c(-c2ccc(OC)cc2)nc(N)nc1-c1ccoc1 [Substance 104] | 71.20 ± 2.85; n = 6 % of the controls | 57.52 ± 12.44; n = 6 μmol · 1^−1 | 137.10 ± 2.72; n = 12 % of the controls
17 | CCCCc1c(-c2ccoc2)nc(N)nc1-c1ccoc1 [Substance 105] | 49.07 ± 4.67; n = 4 % of the controls | 50.30 ± 9.52; n = 4 μmol · 1^−1 | 101.86 ± 5.13; n = 4 % of the controls
18 | CCCCc1c(Cl)nc(N)nc1-c1ccoc1 [Substance 106] | 54.83 ± 2.82; n = 4 % of the controls | 22.10 ± 3.44; n = 4 μmol · 1^−1 | 100.38 ± 5.55; n = 8 % of the controls
19 | CCCCc1c(-c2ccccc2)nc(N)nc1-c1ccsc1 [Substance 107] | 69.69 ± 6.09; n = 4 % of the controls | 68.07 ± 2.56; n = 4 μmol · 1^−1 | 69.08 ± 1.78; n = 4 % of the controls
20 | CCCCc1c(-c2ccc(F)cc2)nc(N)nc1-c1ccsc1 [Substance 108] | 64.92 ± 2.30; n = 4 % of the controls | 47.21 ± 2.59; n = 2 μmol · 1^−1 | 124.71 ± 15.20; n = 4 % of the controls
21 | CCCCc1c(-c2ccc(OC)cc2)nc(N)nc1-c1ccsc1 [Substance 109] | 73.38 ± 4.58; n = 6 % of the controls | 4.9 ± 1.72; n = 4 μmol · 1^−1 | 120.58 ± 7.53; n = 8 % of the controls
22 | CCCCc1c(-c2cccnc2)nc(N)nc1-c1ccsc1 [Substance 110] | 62.00 ± 2.93; n = 4 % of the controls | 64.72 ± 14.00; n = 2 μmol · 1^−1 | 90.73 ± 10.89; n = 4 % of the controls
23 | CCCCc1c(-c2ccsc2)nc(N)nc1-c1cccs1 [Substance 111] | 57.52 ± 1.81; n = 4 % of the controls | 56.94 ± 12.51; n = 6 μmol · 1^−1 | 105.47 ± 5.51; n = 8 % of the controls
24 | CCCCc1c(-c2ccsc2)nc(N)nc1-c1ccco1 [Substance 112] | 47.96 ± 4.90; n = 6 % of the controls | 55.24 ± 7.98; n = 4 μmol · 1^−1 | 92.77 ± 7.75; n = 12 % of the controls
